According to patent publication US6992079B2, “Substituted 11-phenyl-dibenzazepine compounds useful for the treatment or prevention of diseases characterized by abnormal cell proliferation” (President Fellows of Harvard College, priority 1997, dated 2006):
Like-named read-outs stand apart in the source and are kept apart here.

Assays:
[1] = test system: MDA-MB-23; assay: SRB antiproliferative assay; assay type: cell-based; conditions: Homo sapiens; MDA-MB-23 (Breast); SRB; 5% FCS/5 day incubation; read-out: IC50
Text: (§1) The cells were passaged using Trypsin (Gibco).

[2] = test system: MMRU; assay: SRB antiproliferative assay; assay type: cell-based; conditions: Homo sapiens, MMRU (Melanoma), 5% FCS/5 day incubation
Text: as §1

[3] = test system: H460 large cell lung carcinoma; assay: Mouse xenograft tumor growth; assay type: in vivo, CD-1 nude mice
[4] = test system: RL-60 (TS); assay: In-Vitro Testing SRB panel: Leukemia; assay type: cell-based
[5] = test system: K-562; assay: In-Vitro Testing SRB panel: Leukemia; assay type: cell-based
[6] = test system: RPMI-8226; assay: In-Vitro Testing SRB panel: Leukemia; assay type: cell-based
[7] = test system: NCI-H522; assay type: cell-based
[8] = test system: SF-268; assay: In-Vitro Testing SRB panel: CNS Cancer; assay type: cell-based
[9] = test system: LOX IMVI; assay: In-Vitro Testing SRB panel: Melanoma; assay type: cell-based
[10] = test system: MALM-3M; assay: In-Vitro Testing SRB panel: Melanoma; assay type: cell-based
[11] = test system: OVCAR-4; assay: In-Vitro Testing SRB panel: Ovarian Cancer; assay type: cell-based
[12] = test system: 786-0; assay: In-Vitro Testing SRB panel: Renal Cancer; assay type: cell-based
[13] = test system: SN12C; assay: In-Vitro Testing SRB panel: Renal Cancer; assay type: cell-based
[14] = test system: TK-10; assay: In-Vitro Testing SRB panel: Renal Cancer; assay type: cell-based
[15] = test system: PC-3; assay: In-Vitro Testing SRB panel: Prostate Cancer; assay type: cell-based
[16] = test system: DU-145; assay: In-Vitro Testing SRB panel: Prostate Cancer; assay type: cell-based
[17] = test system: NCI/ADR-RES; assay: In-Vitro Testing SRB panel: Breast Cancer; assay type: cell-based
[18] = test system: T-47D; assay: In-Vitro Testing SRB panel: Breast Cancer; assay type: cell-based
[19] = test system: ERVX
[20] = Homo sapiens, read-out: LC50 (the source's name)

SMILES: COc1ccc2c(c1)CN(C(=O)c1ccc([N+](=O)[O-])cc1)c1ccc(Cl)cc1C2c1ccccc1Cl (centres unmarked) [Compound 30]
- IC50 [1]: 0.9 µM
- IC50 [2]: 0.5 µM
- tumor growth [3]: showed inhibition of tumor growth
- GI50 ([4]; Homo sapiens): 0.297 µM
- CC50 ([4]; Homo sapiens, RL-60 (TB), read-out: LC50 (the source's name)): > 100 µM
- TGI ([4]; RL-60 (TB)): >1.00E−04 Molar
- Percent Growth ([4]; RL-60 (TB), Log10 concentration −4.0 Molar): 29%
- Percent Growth ([4]; RL-60 (TB), Log10 concentration −5.0 Molar): 22%
- Percent Growth ([4]; RL-60 (TB), Log10 concentration −6.0 Molar): 35%
- Percent Growth ([4]; RL-60 (TB), Log10 concentration −7.0 Molar): 64%
- Percent Growth ([4]; RL-60 (TB), Log10 concentration −8.0 Molar): 94%
- GI50 ([5]; Homo sapiens, K562): 1.33 µM
- CC50 ([5]; Homo sapiens, K562, K-562, read-out: LC50 (the source's name)): > 100 µM
- TGI ([5]; K-562): >1.00E−04 Molar
- Percent Growth ([5]; K-562, Log10 concentration −4.0 Molar): 17%
- Percent Growth ([5]; K-562, Log10 concentration −5.0 Molar): 24%
- Percent Growth ([5]; K-562, Log10 concentration −6.0 Molar): 54%
- Percent Growth ([5]; K-562, Log10 concentration −7.0 Molar): 86%
- Percent Growth ([5]; K-562, Log10 concentration −8.0 Molar): 99%
- GI50 ([6]; Homo sapiens, RPMI-8226): 0.953 µM
- CC50 ([6]; Homo sapiens, RPMI-8226, read-out: LC50 (the source's name)): > 100 µM
- TGI ([6]; RPMI-8226): >1.00E−04 Molar
- Percent Growth ([6]; RPMI-8226, Log10 concentration −4.0 Molar): 36%
- Percent Growth ([6]; RPMI-8226, Log10 concentration −5.0 Molar): 30%
- Percent Growth ([6]; RPMI-8226, Log10 concentration −6.0 Molar): 49%
- Percent Growth ([6]; RPMI-8226, Log10 concentration −7.0 Molar): 100%
- Percent Growth ([6]; RPMI-8226, Log10 concentration −8.0 Molar): 86%
- GI50 ([7]; Homo sapiens, NCI-H522): 0.76 µM
- CC50 ([7]; Homo sapiens, NCI-H522, read-out: LC50 (the source's name)): > 100 µM
- TGI ([7]; NCI-H522): 6.10E−05 Molar
- Percent Growth ([7]; NCI-H522, Log10 concentration −4.0 Molar): −9%
- Percent Growth ([7]; NCI-H522, Log10 concentration −5.0 Molar): 19%
- Percent Growth ([7]; NCI-H522, Log10 concentration −6.0 Molar): 42%
- Percent Growth ([7]; NCI-H522, Log10 concentration −7.0 Molar): 113%
- Percent Growth ([7]; NCI-H522, Log10 concentration −8.0 Molar): 114%
- GI50 ([8]; Homo sapiens, SF-268): 3.08 µM
- CC50 ([8]; Homo sapiens, SF-268, read-out: LC50 (the source's name)): > 100 µM
- TGI ([8]; SF-268): >1.00E−04 Molar
- Percent Growth ([8]; SF-268, Log10 concentration −4.0 Molar): 21%
- Percent Growth ([8]; SF-268, Log10 concentration −5.0 Molar): 30%
- Percent Growth ([8]; SF-268, Log10 concentration −6.0 Molar): 69%
- Percent Growth ([8]; SF-268, Log10 concentration −7.0 Molar): 115%
- Percent Growth ([8]; SF-268, Log10 concentration −8.0 Molar): 104%
- TGI [9]: >1.00E−04 Molar
- GI50 ([9]; Homo sapiens): 4.3 µM
- CC50 [9, 20]: > 100 µM
- Percent Growth ([9]; Log10 concentration −4.0 Molar): 35%
- Percent Growth ([9]; Log10 concentration −5.0 Molar): 26%
- Percent Growth ([9]; Log10 concentration −6.0 Molar): 91%
- Percent Growth ([9]; Log10 concentration −7.0 Molar): 103%
- Percent Growth ([9]; Log10 concentration −8.0 Molar): 98%
- GI50 ([10]; Homo sapiens): 0.342 µM
- CC50 ([10]; Homo sapiens, MALM-3M, read-out: LC50 (the source's name)): > 100 µM
- TGI ([10]; MALM-3M): 8.35E−05 Molar
- Percent Growth ([10]; MALM-3M, Log10 concentration −4.0 Molar): −4%
- Percent Growth ([10]; MALM-3M, Log10 concentration −5.0 Molar): 49%
- Percent Growth ([10]; MALM-3M, Log10 concentration −6.0 Molar): 16%
- Percent Growth ([10]; MALM-3M, Log10 concentration −7.0 Molar): 82%
- Percent Growth ([10]; MALM-3M, Log10 concentration −8.0 Molar): 96%
- GI50 ([11]; Homo sapiens, OVCAR-4): 1.86 µM
- CC50 ([11]; Homo sapiens, OVCAR-4, read-out: LC50 (the source's name)): > 100 µM
- TGI ([11]; OVCAR-4): 9.89E−06 Molar
- Percent Growth ([11]; OVCAR-4, Log10 concentration −4.0 Molar): −9%
- Percent Growth ([11]; OVCAR-4, Log10 concentration −5.0 Molar): 0%
- Percent Growth ([11]; OVCAR-4, Log10 concentration −6.0 Molar): 69%
- Percent Growth ([11]; OVCAR-4, Log10 concentration −7.0 Molar): 103%
- Percent Growth ([11]; OVCAR-4, Log10 concentration −8.0 Molar): 109%
- TGI ([12]; 786-0): >1.00E−04 Molar
- Percent Growth ([12]; 786-0, Log10 concentration −4.0 Molar): 28%
- Percent Growth ([12]; 786-0, Log10 concentration −5.0 Molar): 11%
- Percent Growth ([12]; 786-0, Log10 concentration −6.0 Molar): 92%
- Percent Growth ([12]; 786-0, Log10 concentration −7.0 Molar): 98%
- Percent Growth ([12]; 786-0, Log10 concentration −8.0 Molar): 98%
- GI50 ([12]; Homo sapiens, 786-0): 3.28 µM
- CC50 ([12]; Homo sapiens, 786-0, read-out: LC50 (the source's name)): > 100 µM
- TGI [13]: >1.00E−04 Molar
- GI50 ([13]; Homo sapiens): 6.32 µM
- CC50 [13, 20]: > 100 µM
- Percent Growth ([13]; Log10 concentration −4.0 Molar): 45%
- Percent Growth ([13]; Log10 concentration −5.0 Molar): 41%
- Percent Growth ([13]; Log10 concentration −6.0 Molar): 87%
- Percent Growth ([13]; Log10 concentration −7.0 Molar): 90%
- Percent Growth ([13]; Log10 concentration −8.0 Molar): 100%
- GI50 ([14]; Homo sapiens, TK-10): 27 µM
- CC50 ([14]; Homo sapiens, TK-10, read-out: LC50 (the source's name)): > 100 µM
- TGI ([14]; TK-10): >1.00E−04 Molar
- Percent Growth ([14]; TK-10, Log10 concentration −4.0 Molar): 41%
- Percent Growth ([14]; TK-10, Log10 concentration −5.0 Molar): 57%
- Percent Growth ([14]; TK-10, Log10 concentration −6.0 Molar): 93%
- Percent Growth ([14]; TK-10, Log10 concentration −7.0 Molar): 101%
- Percent Growth ([14]; TK-10, Log10 concentration −8.0 Molar): 100%
- GI50 ([15]; Homo sapiens, PC-3): 1.33 µM
- CC50 ([15]; Homo sapiens, PC-3, read-out: LC50 (the source's name)): > 100 µM
- TGI ([15]; PC-3): >1.00E−04 Molar
- Percent Growth ([15]; PC-3, Log10 concentration −4.0 Molar): 30%
- Percent Growth ([15]; PC-3, Log10 concentration −5.0 Molar): 29%
- Percent Growth ([15]; PC-3, Log10 concentration −6.0 Molar): 53%
- Percent Growth ([15]; PC-3, Log10 concentration −7.0 Molar): 103%
- Percent Growth ([15]; PC-3, Log10 concentration −8.0 Molar): 100%
- TGI ([16]; DU-145): >1.00E−04 Molar
- Percent Growth ([16]; DU-145, Log10 concentration −4.0 Molar): 31%
- Percent Growth ([16]; DU-145, Log10 concentration −5.0 Molar): 38%
- Percent Growth ([16]; DU-145, Log10 concentration −6.0 Molar): 95%
- Percent Growth ([16]; DU-145, Log10 concentration −7.0 Molar): 98%
- Percent Growth ([16]; DU-145, Log10 concentration −8.0 Molar): 98%
- GI50 ([16]; Homo sapiens, DU-145): 6.24 µM
- CC50 ([16]; Homo sapiens, DU-145, read-out: LC50 (the source's name)): > 100 µM
- TGI [17]: >1.00E−04 Molar
- GI50 ([17]; Homo sapiens): 62.4 µM
- CC50 [17, 20]: > 100 µM
- Percent Growth ([17]; Log10 concentration −4.0 Molar): 47%
- Percent Growth ([17]; Log10 concentration −5.0 Molar): 61%
- Percent Growth ([17]; Log10 concentration −6.0 Molar): 104%
- Percent Growth ([17]; Log10 concentration −7.0 Molar): 117%
- Percent Growth ([17]; Log10 concentration −8.0 Molar): 124%
- GI50 ([18]; Homo sapiens, T47D): 2.87 µM
- CC50 ([18]; Homo sapiens, T47D, T-47D, read-out: LC50 (the source's name)): > 100 µM
- TGI ([18]; T-47D): >1.00E−04 Molar
- Percent Growth ([18]; T-47D, Log10 concentration −4.0 Molar): 18%
- Percent Growth ([18]; T-47D, Log10 concentration −5.0 Molar): 23%
- Percent Growth ([18]; T-47D, Log10 concentration −6.0 Molar): 71%
- Percent Growth ([18]; T-47D, Log10 concentration −7.0 Molar): 96%
- Percent Growth ([18]; T-47D, Log10 concentration −8.0 Molar): 92%
- TGI ([19]; ERVX): >1.00E−04 Molar
- Percent Growth ([19]; ERVX, Log10 concentration −4.0 Molar): 18%
- Percent Growth ([19]; ERVX, Log10 concentration −5.0 Molar): 23%
- Percent Growth ([19]; ERVX, Log10 concentration −6.0 Molar): 78%
- Percent Growth ([19]; ERVX, Log10 concentration −7.0 Molar): 96%
- Percent Growth ([19]; ERVX, Log10 concentration −8.0 Molar): 92%
- GI50 ([19]; Homo sapiens): 3.24 µM
- CC50 ([19]; Homo sapiens, read-out: LC50): > 100 µM
